Source: patent publication US9012651B2, “TRPV3 modulators” (AbbVie Inc., priority 2011, dated 2015)
pIC50: −log10 of the molar value.

Biological target: human TRPV3 receptors (Homo sapiens (Human), UniProt Q8NET8)
Test: Calcium flux assay (FLIPR TETRA), inhibition of the 2-APB response
Type: cell-based
Conditions: recombinant HEK293 cells stably expressing TRPV3, Calcium-4 dye, 2-APB at its EC80
Method in brief: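 Responses are given relative to the maximal 2-APB signal in the absence of compound, using peak fluorescence over baseline. Measured by FLIPR Tetra calcium flux in stable human and mouse TRPV3 HEK293 cells after 90-120 min dark dye incubation.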

human TRPV3 receptors, sequence (Q8NET8 whole entry): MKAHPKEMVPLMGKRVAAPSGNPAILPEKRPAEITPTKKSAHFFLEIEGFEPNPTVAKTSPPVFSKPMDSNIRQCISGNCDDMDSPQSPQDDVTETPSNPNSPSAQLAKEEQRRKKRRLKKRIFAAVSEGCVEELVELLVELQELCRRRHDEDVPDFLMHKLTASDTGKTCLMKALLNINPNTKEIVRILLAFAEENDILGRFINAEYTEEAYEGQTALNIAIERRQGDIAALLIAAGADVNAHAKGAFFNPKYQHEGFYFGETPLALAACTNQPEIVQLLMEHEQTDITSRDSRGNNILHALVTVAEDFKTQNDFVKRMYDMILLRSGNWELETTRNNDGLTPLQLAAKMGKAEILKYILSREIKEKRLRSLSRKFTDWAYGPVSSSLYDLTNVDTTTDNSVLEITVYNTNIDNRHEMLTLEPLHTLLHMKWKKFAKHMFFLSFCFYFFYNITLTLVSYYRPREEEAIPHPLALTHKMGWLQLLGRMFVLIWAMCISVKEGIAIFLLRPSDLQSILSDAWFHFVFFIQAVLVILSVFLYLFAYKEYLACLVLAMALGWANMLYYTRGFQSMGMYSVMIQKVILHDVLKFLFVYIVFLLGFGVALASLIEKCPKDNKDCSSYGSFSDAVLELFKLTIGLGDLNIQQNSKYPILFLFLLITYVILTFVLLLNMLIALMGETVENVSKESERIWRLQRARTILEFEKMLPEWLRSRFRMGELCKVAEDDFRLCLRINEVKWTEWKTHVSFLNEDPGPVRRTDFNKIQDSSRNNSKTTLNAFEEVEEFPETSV

pIC50	Compound
< 4.70	OC(CNCc1ccnc(-c2ccc(C(F)(F)F)cc2)n1)C(F)(F)F (stereo not shown) [Example 179, 1,1,1-trifluoro-3-[({2-[4-(trifluoromethyl)phenyl]pyrimidin-4-yl}methyl)amino]propan-2-ol]
4.82	COc1ccc(-c2ccc(C(F)(F)F)nc2)nc1CN[C@@H](CO)C(C)C [Example 112, (2R)-2-({[5-methoxy-6′-(trifluoromethyl)-2,3′-bipyridin-6-yl]methyl}amino)-3-methylbutan-1-ol]
< 4.70	OC(CNCc1ccnc(-c2ccc(C(F)(F)F)cc2)n1)c1ccccc1 (stereo not shown) [Example 182, 1-phenyl-2-[({2-[4-(trifluoromethyl)phenyl]pyrimidin-4-yl}methyl)amino]ethanol]
6.85	CC(C)[C@H](CO)NCc1nc(N2CCc3cccc(F)c3C2)ccc1F [Example 99, (2R)-2-({[3-fluoro-6-(8-fluoro-3,4-dihydroisoquinolin-2(1H)-yl)pyridin-2-yl]methyl}amino)-3-methylbutan-1-ol]
< 4.70	CC(C)(O)[C@H](CO)NCc1ccnc(-c2ccc(C(F)(F)F)nc2)n1 [Example 189, (2S)-3-methyl-2-[({2-[6-(trifluoromethyl)pyridin-3-yl]pyrimidin-4-yl}methyl)amino]butane-1,3-diol]
6.23	CC(C)[C@H](CO)NCc1nc(-c2ccc(OCC(F)(F)F)nc2)ccc1F [Example 68, (2R)-2-({[5-fluoro-6′-(2,2,2-trifluoroethoxy)-2,3′-bipyridin-6-yl]methyl}amino)-3-methylbutan-1-ol]
6.59	COc1cc(-c2ccc(F)c(CN[C@@H](CO)C(C)C)n2)cc(F)c1F [Example 283, (2R)-2-({[6-(3,4-difluoro-5-methoxyphenyl)-3-fluoropyridin-2-yl]methyl}amino)-3-methylbutan-1-ol]
6.54	CC(C)[C@H](CO)NCc1nc([C@H]2CC[C@H](C(F)(F)F)CC2)ccc1F [Example 258, (2R)-2-[({3-fluoro-6-[trans-4-(trifluoromethyl)cyclohexyl]pyridin-2-yl}methyl)amino]-3-methylbutan-1-ol]
6.38	OCC1(NCc2cccc(-c3ccc(F)c(C(F)(F)F)c3)n2)CCCC1 [Example 268, {1-[({6-[4-fluoro-3-(trifluoromethyl)phenyl]pyridin-2-yl}methyl)amino]cyclopentyl}methanol]
5.71	CC(C)[C@H](CO)NCc1cccc(N2CCCCC2)n1 [Example 11, (2R)-3-methyl-2-({[6-(piperidin-1-yl)pyridin-2-yl]methyl}amino)butan-1-ol]
5.95	CC(C)[C@H](CO)NCc1nc(-c2cccc(C(F)(F)F)c2)ccc1F [Example 16, (2R)-2-[({3-fluoro-6-[3-(trifluoromethyl)phenyl]pyridin-2-yl}methyl)amino]-3-methylbutan-1-ol]
6.54	CC(C)[C@H](CO)NCc1nc(C#Cc2ccc(F)cc2)ccc1F [Example 238, (2R)-2-[({3-fluoro-6-[(4-fluorophenyl)ethynyl]pyridin-2-yl}methyl)amino]-3-methylbutan-1-ol]
6.29	CC[C@@H](NCc1nc(-c2ccc(C(F)(F)F)nc2)ccc1F)C(C)O (stereo partly drawn) [Example 115, (3R)-3-({[5-fluoro-6′-(trifluoromethyl)-2,3′-bipyridin-6-yl]methyl}amino)pentan-2-ol]
5.69	CC1CCN(C(=O)c2cccc(-c3ccc(F)c(CN[C@@H](CO)C(C)C)n3)c2)CC1 [Example 46, {3-[5-fluoro-6-({[(2R)-1-hydroxy-3-methylbutan-2-yl]amino}methyl)pyridin-2-yl]phenyl}(4-methylpiperidin-1-yl)methanone]
6.24	OC[C@H](NCc1nc(-c2ccc(C(F)(F)F)nc2)ccc1F)C1CCCCC1 [Example 88, (2R)-2-cyclohexyl-2-({[5-fluoro-6′-(trifluoromethyl)-2,3′-bipyridin-6-yl]methyl}amino)ethanol]

Compound	pIC50
{1-[({2-[5-(trifluoromethyl)pyridin-2-yl]pyrimidin-4-yl}methyl)amino]cyclohexyl}methanol [Example 193]	< 4.70
